Results from patent publication US20070037194A1, “Allelic variation in the serotonin transporter (SERT) as an indicator of autism” (priority 2005, published 2007).

Key:
SERT Ala56 = format: cell-based, human; conditions: homozygous Ala56 cells preincubated for various times at 37° C. with 10 μM 8BrcGMP
Experimental: (§1) Homozygous Ala56 cells (10^6/tube) were preincubated for various times at 37° C. with 10 μM 8BrcGMP prior to [^3H]5-HT transport assays.
(§2) Functional Analysis of Gly56Ala Activity and Regulation. EBV-transformed lymphocyte cell lines from AGRE or Tufts/Vanderbilt autism families carrying either the Gly56 or 56Ala alleles were obtained from the NIMH Human Genetics Initiative Repository (www.nimhgenetics.org/) at Rutgers University. […] Lymphocytes were pelleted at 1500 rpm, 5 min and washed with KRH assay buffer. A total of 1×10^6 cells in triplicate were pre-warmed (37° C.) in a shaking water bath (10 min) in 12×75 polypropylene tubes in KRH buffer containing 100 μM pargyline and 100 μM ascorbic acid. After a 5-min incubation with [^3H]5-HT (20 nM) at 37° C., uptake assays were terminated by immersion on ice, and uptake in pelleted, 1% SDS-extracted cells quantitated by scintillation spectrometry. Specific 5-HT uptake was determined by subtracting the amount of [^3H]5-HT accumulated in the presence of 10 μM paroxetine (SmithKline Beecham). [^3H]L-glutamate transport assays were conducted as described for [^3H]5-HT except using 100 nM substrate and defining nonspecific uptake with parallel accumulation acquired at 4° C.

Gly56 SERT = format: cell-based, human; conditions: coincubation with PKG inhibitor H8 at 10 μM; data not shown
Experimental: as §1, §2

SMILES | sensitivity of SERT Ala56 [3H]5-HT transport to 8BrcGMP (SERT Ala56) | block of 8BrcGMP effects on Gly56 SERT (Gly56 SERT)
Nc1nc2c(nc(Br)n2[C@@H]2O[C@@H]3COP(=O)(O)O[C@H]3[C@H]2O)c(=O)[nH]1 [8BrcGMP] | lacks sensitivity | 
CNCCNS(=O)(=O)c1cccc2cnccc12 [H8] |  | completely blocked
